Like-named read-outs stand apart in the source and are kept apart here.
Legend:
[1] = target: Casein kinase 1 (CK1δ/ε); test: CK1δ/ε kinase assay; format: biochemical, porcine; settings: 15 μM ATP, read-out: IC50 CK1
Experimental: (§1) The twenty-two (5Z) 5-arylidene-2-thioxo-1,3-thiazolidin-4-ones 3a–v and the twenty-four (5Z) 2-amino-5-arylidene-1,3-thiazolidin-4(5H)-ones 5a–x were evaluated against four different and representative in vitro kinase assays DYRK1A (dual specificity tyrosine phosphorylation regulated kinase), CK1 δ/e (caseine kinase 1), CDK5/p25 (cyclin dependant kinase), and GSK3 α/β (glycogen synthase kinase 3) to evaluate their inhibition potency. […] All the compounds were initially tested at a 10 μM concentration.
(§2) After 30-min incubation at 30 °C, the reaction was stopped by harvesting, using a FilterMate harvester (Packard), onto P81 phospho-cellulose papers (GE Healthcare, Chicago, IL, USA) which were washed in 1% phosphoric acid. Scintillation fluid was added and the radioactivity measured in a Packard counter. Blank values were subtracted and activities calculated as pmoles of phosphate incorporated for the 30-min incubation. The activities were expressed in % of the maximal activity, i.e., in the absence of inhibitors. Controls were performed with appropriate dilutions of DMSO.
Casein kinase 1 (CK1δ/ε) (porcine brain, native) was assayed with 0.67 µg of CKS peptide ([…]pSAYSITA), a CK1 specific substrate obtained from Millegen (Labege, France).

[2] = target: T1, CDK5/p25 (Homo sapiens, UniProt Q00535); test: CDK5/p25 kinase assay; format: biochemical; settings: 15 μM ATP
T1 construct: made in house
Experimental: as §1, §2
CDK5/p25 (human, recombinant) was prepared as previously described. […] ATP (3000 Ci/mmol; 10 mCi/mL) in a final volume of 30 μL. After 30-min incubation at 30 °C, 25 μL aliquots of supernatant were spotted onto 2.5 × 3 cm pieces of Whatman P81 phospho-cellulose paper, and, 20 s later, the filters were washed five times (for at least 5 min each time) in a solution of 10 mL phosphoric acid/litter of water. The wet filters were counted in the presence of 1 mL ACS (Amersham, UK) scintillation fluid.

[3] = target: GSK-3α/β; test: GSK-3α/β kinase assay; format: biochemical, porcine; settings: 15 μM ATP, read-out: IC50 GSK3α/β
Experimental: as §1, §2
GSK-3α/β (porcine brain, native) was assayed, as described for CDK5/p25 but in Buffer A and using a GSK-3 specific substrate (GS-1: […]pEDEEE) (pS stands for phosphorylated serine). GS-1 was synthesized by Millegen (Labege, France).

[4] = target: T2, DYRK1A (Rattus norvegicus, UniProt Q63470); test: DYRK1A kinase assay; format: biochemical; settings: 15 μM ATP
T2 construct: GST; made in house; host or cells: Escherichia coli
Experimental: as §1
as §2, with “DMSO. […]” for “DMSO.”

T1 sequence (Q00535 whole entry): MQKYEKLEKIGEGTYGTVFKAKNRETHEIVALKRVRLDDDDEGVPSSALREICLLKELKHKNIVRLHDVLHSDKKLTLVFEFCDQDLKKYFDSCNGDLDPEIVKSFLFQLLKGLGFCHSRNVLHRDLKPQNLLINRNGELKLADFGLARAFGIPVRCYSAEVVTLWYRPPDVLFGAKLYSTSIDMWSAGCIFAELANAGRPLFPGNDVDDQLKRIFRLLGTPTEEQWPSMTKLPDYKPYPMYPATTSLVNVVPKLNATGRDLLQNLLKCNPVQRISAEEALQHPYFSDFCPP
T1 sequence (Q15078 99-307 partner limits assumed): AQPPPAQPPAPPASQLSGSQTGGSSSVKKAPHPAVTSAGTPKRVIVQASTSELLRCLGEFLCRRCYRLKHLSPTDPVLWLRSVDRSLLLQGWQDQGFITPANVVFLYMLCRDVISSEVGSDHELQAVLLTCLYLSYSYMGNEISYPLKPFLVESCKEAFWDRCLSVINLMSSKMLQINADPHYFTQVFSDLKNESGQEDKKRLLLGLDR

Row | IC50 ([1]; Table 5) [µM] | IC50 ([2]; Table 5) [µM] | IC50 ([3]; Table 5) [µM] | IC50 ([4]; Table 5) [µM] | IC50 ([1]; Table 4) [µM] | IC50 ([2]; Table 4) [µM] | IC50 ([3]; Table 4) [µM] | IC50 ([4]; Table 4) [µM] | Structure (SMILES)
1 | > 10 | > 10 | > 10 | > 10 | – | – | – | – | COc1ccc(/C=C2\SC(N3CCSCC3)=NC2=O)cc1OC [Compound 5h, (5Z)-5-(3,4-Dimethoxybenzylidene)-2-(thiomorpholin-1-yl)-1,3-thiazol-4(5H)-one]
2 | > 10 | > 10 | > 10 | 1.8 | – | – | – | – | O=C1N=C(N2CCN(c3ncccn3)CC2)S/C1=C\c1ccc2c(c1)OCO2 [Compound 5l, (5Z)-5-(1,3-Benzodioxol-5-ylmethylene)-2-[4-(pyrimidin-2-yl)piperazin-1-yl]-1,3-thiazol-4(5H)-one]
3 | > 10 | > 10 | ≤ 8.8 | 1.8 | – | – | – | – | O=C1N=C(N2CCNCC2)S/C1=C\c1ccc2c(c1)OCO2 [Compound 5e, (5Z)-5-(1,3-Benzodioxol-5-ylmethylene)-2-(piperazin-1-yl)-1,3-thiazol-4(5H)-one]
4 | > 10 | > 10 | > 10 | 2.3 | – | – | – | – | CN1CCN(C2=NC(=O)/C(=C/c3ccc4c(c3)OCO4)S2)CC1 [Compound 5f, (5Z)-5-(1,3-Benzodioxol-5-ylmethylene)-2-(4-N-methylpiperazin-1-yl)-1,3-thiazol-4(5H)-one]
5 | > 10 | > 10 | > 10 | > 10 | – | – | – | – | O=C1N=C(Nc2ccncc2)S/C1=C\c1ccc2c(c1)OCO2 [Compound 5t, (5Z)-5-Benzo[1,3]dioxol-5-ylmethylene-2-(pyridin-4-yl)amino-1,3-thiazol-4(5H)-one]
6 | > 10 | > 10 | > 10 | 0.12 | – | – | – | – | O=C1N=C(Nc2ccccc2)S/C1=C\c1ccc2c(c1)CCO2 [Compound 5w, (5Z)-5-(2,3-Dihydro-benzofuran-5-ylmethylene)-2-phenylamino-1,3-thiazol-4(5H)-one]
7 | > 10 | > 10 | ≤ 10 | 0.033 | – | – | – | – | O=C1N=C(Nc2ccccn2)S/C1=C\c1ccc2c(c1)OCO2 [Compound 5s, (5Z)-5-Benzo[1,3]dioxol-5-ylmethylene-2-(pyridin-2-yl)amino-1,3-thiazol-4(5H)-one]
8 | > 10 | > 10 | > 10 | > 10 | – | – | – | – | COc1ccc(/C=C2\SC(N3CCOCC3)=NC2=O)cc1OC [Compound 5b, (5Z)-5-(3,4-Dimethoxybenzylidene)-2-(morpholin-1-yl)-1,3-thiazol-4(5H)-one]
9 | – | – | – | – | > 10 | > 10 | > 10 | > 10 | O=C1NC(=S)S/C1=C\c1ccc2c(c1)OCCCO2 [Compound 3n, (5Z)-5-(3,4-Dihydro-2H-1,5-benzodioxepine-7-yl)methylene-2-thioxo-1,3-thiazolidin-4-one]
10 | – | – | – | – | > 10 | > 10 | > 10 | 0.16 | O=C(O)CN1C(=O)/C(=C/c2ccc3c(c2)OCO3)SC1=S [Compound 3u, (5Z)-(5-Benzo[1,3]dioxol-5-ylmethylene-4-oxo-2-thioxo-thiazolidin-3-yl)-acetic acid]
11 | – | – | – | – | > 10 | > 10 | > 10 | > 10 | O=C(Cc1ccccc1)NN1C(=O)/C(=C/c2ccc3c(c2)OCO3)SC1=S [Compound 3q, (5Z)-N-(5-Benzo[1,3]dioxol-5-ylmethylene-4-oxo-2-thioxo-thiazolidin-3-yl)-2-phenyl-acetamide]
12 | ≥ 10 | > 10 | > 10 | 0.94 | – | – | – | – | O=C1N=C(N2CCCCC2)S/C1=C\c1ccc2c(c1)OCCO2 [Compound 5p, (5Z)-5-(2,3-Dihydro-1,4-benzodioxin-6-ylmethylene)-2-(piperidin-1-yl)-1,3-thiazol-4(5H)-one]
13 | > 10 | > 10 | 5.3 | 0.07 | – | – | – | – | O=C1N=C(N2CCSCC2)S/C1=C\c1ccc2c(c1)CCO2 [Compound 5n, (5Z)-5-(2,3-Dihydro-benzofuran-5-ylmethylene)-2-(thiomorpholin-4-yl)-1,3-thiazol-4(5H)-one]
14 | – | – | – | – | > 10 | > 10 | > 10 | 6.5 | O=C1NC(=S)S/C1=C\c1ccc2c(c1)CCCO2 [Compound 3m, (5Z)-5-(Chroman-6-yl)methylene-2-thioxo-1,3-thiazolidin-4-one]
15 | – | – | – | – | > 10 | > 10 | > 10 | > 10 | COc1ccc(C(=O)NN2C(=O)/C(=C/c3ccc4c(c3)OCO4)SC2=S)cc1 [Compound 3s]
16 | > 10 | > 10 | > 10 | 0.27 | – | – | – | – | O=C1N=C(Nc2ccccc2)S/C1=C\c1ccc2c(c1)OCCO2 [Compound 5x, (5Z)-5-(2,3-Dihydro-benzo[1,4]dioxin-6-ylmethylene)-2-phenylamino-1,3-thiazol-4(5H)-one]
17 | > 10 | > 10 | > 10 | 0.9 | – | – | – | – | COc1ccc(NC2=NC(=O)/C(=C/c3ccc4c(c3)OCO4)S2)cc1 [Compound 5u, (5Z)-5-Benzo[1,3]dioxol-5-ylmethylene-2-(4-methoxy-phenylamino)-1,3-thiazol-4(5H)-one]
18 | > 10 | > 10 | ≥ 10 | 0.6 | – | – | – | – | O=C1N=C(N2CCOCC2)S/C1=C\c1ccc2c(c1)CCO2 [Compound 5m, (5Z)-5-(2,3-Dihydro-benzofuran-5-ylmethylene)-2-(morpholin-4-yl)-1,3-thiazol-4(5H)-one]
19 | > 10 | > 10 | > 10 | 0.61 | – | – | – | – | O=C1N=C(Nc2ccccc2)S/C1=C\c1ccc2c(c1)OCO2 [Compound 5r, (5Z)-5-Benzo[1,3]dioxol-5-ylmethylene-2-phenylamino-1,3-thiazol-4(5H)-one]
20 | – | – | – | – | > 10 | > 10 | > 10 | > 10 | O=C1/C(=C/c2ccc3c(c2)OCO3)SC(=S)N1NS(=O)(=O)c1ccccc1 [Compound 3t, (5Z)-N-(5-Benzo[1,3]dioxol-5-ylmethylene-4-oxo-2-thioxo-thiazolidin-3-yl)-benzenesulfonamide]
21 | – | – | – | – | > 10 | > 10 | > 10 | 0.7 | O=C(O)CCN1C(=O)/C(=C/c2ccc3c(c2)OCO3)SC1=S [Compound 3v, (5Z)-3-(5-Benzo[1,3]dioxol-5-ylmethylene-4-oxo-2-thioxo-thiazolidin-3-yl)-propionic acid]
22 | > 10 | > 10 | > 10 | 1.6 | – | – | – | – | O=C1N=C(N2CCN(c3ccc(F)cc3)CC2)S/C1=C\c1ccc2c(c1)OCO2 [Compound 5k, (5Z)-5-(1,3-Benzodioxol-5-ylmethylene)-2-[1-(4-fluorophenyl)piperazin-1-yl]-1,3-thiazol-4(5H)-one]
23 | ≥ 10 | > 10 | 4.7 | 0.09 | – | – | – | – | O=C1N=C(N2CCCCC2)S/C1=C\c1ccc2c(c1)CCO2 [Compound 5o, (5Z)-5-(2,3-Dihydro-benzofuran-5-ylmethylene)-2-(piperidin-1-yl)-1,3-thiazol-4(5H)-one]
24 | > 10 | > 10 | 7.4 | 0.63 | – | – | – | – | O=C1N=C(N2CCOCC2)S/C1=C\c1ccc2c(c1)OCO2 [Compound 5a, (5Z)-5-(1,3-Benzodioxol-5-ylmethylene)-2-(morpholin-1-yl)-1,3-thiazol-4(5H)-one]
25 | > 10 | > 10 | 3.7 | 0.17 | – | – | – | – | O=C1N=C(N2CCSCC2)S/C1=C\c1ccc2c(c1)OCCO2 [Compound 5q, (5Z)-5-(2,3-Dihydro-1,4-benzodioxin-6-ylmethylene)-2-(thiomorpholin-4-yl)-1,3-thiazol-4(5H)-one]
26 | – | – | – | – | > 10 | > 10 | > 10 | 0.028 | O=C1NC(=S)S/C1=C\c1ccc(O)cc1 [Compound 3e, (5Z)-5-(4-Hydroxybenzylidene)-2-thioxo-1,3-thiazolidin-4-one]
